Activity calls are given as the source filed them. No cut-off for these calls is given here.
Columns and labels:
[1] = tested on: HCT-116; assay: Induction of H2O2 accumulation in human HCT116 cells at 12.5 uM relative to control; assay type: functional
[2] = tested on: HCT-116; assay: Induction of ROS generation in human HCT116 cells at 12.5 uM after 5 mins by DCFH-DA probe based fluorescence assay relative to control; assay type: functional, cell-based
[3] = tested on: HCT-116; assay: Induction of apoptosis in human HCT116 cells assessed as increase in caspase 3/7 activation at 50 to 200 uM after 17 hrs by luciferase coupled luminescence assay; assay type: functional, cell-based
[4] = tested on: HCT-116; assay: Induction of apoptosis in human HCT116 cells assessed as nuclear condensation at 100 uM after 48 hrs by Hoechst 33342 staining based assay; assay type: functional, cell-based
[5] = Cytotoxicity against human HCT116 cells assessed as decrease in cell viability after 17 hrs by MTT assay; assay type: functional, cell-based; conditions: HCT-116, 17 h
[6] = tested on: HCT-116; assay: Cytotoxicity against human HCT116 cells assessed as decrease in cell viability at 6.25 to 200 uM after 17 hrs by MTT assay; assay type: functional, cell-based

CC(C)[C@H]1CC[C@H](C)[C@@]23CC[C@@](C)(C=C12)OO3
fold change (FC) [1]: 2 - 3
Activity [2]: Active
Activity [3]: Active
Activity [4]: Active
IC50 [5]: 38.6 µM
Activity [6]: Active

Cc1ccc2c(c1)[C@H](C(C)C)CC[C@@]2(C)OO
fold change (FC) [1]: 2 - 3
Activity [2]: Active
Activity [3]: Active
Activity [4]: Active
IC50 [5]: 43.7 µM
Activity [6]: Active

CC1=C[C@@H]2C(=CC1)[C@](C)(OO)CC[C@@H]2C(C)C
fold change (FC) [1]: 2 - 3
Activity [2]: Active
Activity [3]: Active
Activity [4]: Active
IC50 [5]: 61.2 µM
Activity [6]: Active

— ChEMBL document CHEMBL3856244, “Hydrogen peroxide derived from marine peroxy sesquiterpenoids induces apoptosis in HCT116 human colon cancer cells” (Bioorg Med Chem Lett, 2016)
